Results: patent US20050026785A1, “Novel phenyl-propargylether derivatives” (priority 2001, published 2005)

Columns and labels:
Type in all cases: in vivo
Phytophthora [1] = assay: D-3b Systemic action against Phytophthora on potato plants; details: test D-3b systemic (soil watering), potato plants (Bintje), untreated plants showed pathogen attack of 80-100%, read-out: inhibition of fungal infestation
Method: (§1) D-3: Action against Phytophthora on potato plants
2-3 week old potato plants (Bintje variety) are watered with a spray mixture (0.02% active ingredient based on the volume of the soil) prepared from a wettable powder formulation of the test compound. […] After 48 hours, the treated plants are infected with a sporangia suspension of the fungus. Fungus infestation is evaluated after incubation of the infected plants for 4 days at 90-100% relative humidity and +20° C. Fungal infestation is effectively controlled with compounds of Tables 1 to 31.

Phytophthora [2] = assay: D-2b Systemic action against Phytophthora on tomato plants; details: test D-2b systemic (soil watering), untreated plants showed pathogen attack of 80-100%, read-out: inhibition of fungal infestation
Method: (§2) D-2: Action against Phytophthora on tomato plants
After a cultivation period of 3 weeks, tomato plants are watered with a spray mixture (0.02% active ingredient based on the volume of the soil) prepared from a wettable powder formulation of the test compound. […] After 96 hours, the treated plants are infected with a sporangia suspension of the fungus. Fungus infestation is evaluated after incubation of the infected plants for 4 days at 90-100% relative humidity and +20° C.

Phytophthora [3] = assay: D-2a Residual-protective action against Phytophthora on tomato plants; details: test D-2a residual-protective, untreated plants showed pathogen attack of 80-100%, read-out: inhibition of fungal infestation
Method: as §2
(§3) a) Residual-protective action
After a cultivation period of 3 weeks, tomato plants are sprayed with a spray mixture (0.02% active ingredient) prepared from a wettable powder formulation of the test compound. After 48 hours, the treated plants are infected with a sporangia suspension of the fungus. Fungus infestation is evaluated after incubation of the infected plants for 5 days at 90-100% relative humidity and +20° C.

Plasmopara viticola [4] = assay: D-1a Residual-protective action against Plasmopara viticola on vines; details: test D-1a residual-protective, vine seedlings, untreated plants showed pathogen attack of 80-100%, read-out: inhibition of fungal infestation
Method: (§4) D-1: Action against Plasmopara viticola on vines
as §3
Vine seedlings are sprayed at the 4- to 5-leaf stage with a spray mixture (0.02% active ingredient) prepared from a wettable powder formulation of the test compound. After 24 hours, the treated plants are infected with a sporangia suspension of the fungus. Fungus infestation is evaluated after incubation for 6 days at 95-100% relative humidity and +20° C.

Phytophthora [5] = assay: D-3a Residual-protective action against Phytophthora on potato plants; details: test D-3a residual-protective, potato plants (Bintje), untreated plants showed pathogen attack of 80-100%, read-out: inhibition of fungal infestation
Method: as §1, §3
2-3 week old potato plants (Bintje variety) are sprayed with a spray mixture (0.02% active ingredient) prepared from a wettable powder formulation of the test compound. After 48 hours, the treated plants are infected with a sporangia suspension of the fungus. Fungus infestation is evaluated after incubation of the infected plants for 4 days at 90-100% relative humidity and +20° C.

Plasmopara viticola [6] = assay: D-1b Residual-curative action against Plasmopara viticola on vines; details: test D-1b residual-curative, vine seedlings, untreated plants showed pathogen attack of 80-100%, read-out: inhibition of fungal infestation
Method: as §4
b) Residual-Curative Action
Vine seedlings are infected at the 4- to 5-leaf stage with a sporangia suspension of the fungus. After incubation for 24 hours in a humidity chamber at 95-100% relative humidity and +20° C., the infected plants are dried and sprayed with a spray mixture (0.02% active ingredient) prepared from a wettable powder formulation of the test compound. After the spray coating has dried, the treated plants are placed in the humidity chamber again. Fungus infestation is evaluated 6 days after infection.

Measured: inhibition at 200 ppm

C#CCOc1ccc(CCNC(=O)[C@@H](OCC#C)c2ccc(Cl)cc2)cc1OC [Compound E1.011, (S)-2-(4-chloro-phenyl)-N-[2-(3-methoxy-4-prop-2-ynyloxy-phenyl)-ethyl]-2-prop-2-ynyloxy-acetamide]
80 to 100%: all assays above

CCC#CCOc1ccc(CCNC(=O)[C@@H](OCC)c2ccccc2)cc1OC [Compound E1.151]
80 to 100%: Phytophthora [2] | Phytophthora [3]

C#CCOc1ccc(CCNC(=O)[C@@H](OCC#C)c2ccccc2)cc1OC [Compound E1.002, (S)-2-phenyl-N-[2-(3-methoxy-4-prop-2-ynyloxy-phenyl)-ethyl]-2-prop-2-ynyloxy-acetamide]
80 to 100%: all assays above
